Assay results published in patent US5534492A, “Muramyl peptide for the treatment of toxicity” (Peptech (UK) Limited, priority 1992, dated 1996).
One block for each molecule: values may come before it.

How the values were obtained:
inbred C57 B1/6 mice = assay: Acetaldehyde narcosis in inbred C57 B1/6 mice; assay type: in vivo; details: GMDPA IP daily for three days
Procedure: (§1) Outbred white mice were given three intraperitoneal injections of GMDP at daily intervals and challenged with ethanol (4.5 g/kg IP) after the last GMDP injection. Narcosis was defined as the time in the lateral position ("leglessness"). […] Each group contained 10 to 12 mice.
This example studies the influence of GMDPA on acetaldehyde narcosis in inbred C57 B1/6 mice. The procedure of Example 1 was generally followed except that GMDPA was injected IP daily for three days and acetaldehyde was given 1, 4, 8 or 12 days later.

Pyrogenicity = assay: Pyrogenicity
Source text: Pyrogenicity is a problem which has caused difficulties for the exploitation of certain muramyl dipeptides. Pyrogenicity may be attenuated by appropriate formulations (see, for example, the liposomal formulations of U.S. Pat. Nos. 4,522,811 and 4,684,625), but in general it will be preferable to choose, for use in the present invention, a muramyl dipeptide which has low intrinsic pyrogenicity. […] Such an analogue is available, and is N-acetyl-glucosaminyl-N-acetyl-muramyl-L-alanyl-D-glutamic acid (GMDP-A), which is Compound III in U.S. Pat. No. 4,395,399, and whose structure is as follows: [drawing 5]

mice [1] = assay: Acute toxicity, LD50 test in mice; assay type: in vivo
Source text: This compound (Compound II in U.S. Pat. No. 4,395,399), also known as glycopin, has already undergone preclinical toxicity testing and pharmacokinetic investigations required for licensing for clinical use in the USSR. The acute toxicity in mice, measured by the LD50 test is 7 g/kg.

Water solubility = assay type: physicochemical
Source text: GMDP also has the particular advantage, shared with the other glucosaminyl-muramyl peptides of U.S. Pat. No. 4,395,399, of being water soluble: this is a real benefit for parenteral administration. The choice of this muramyl dipeptide which in many ways is contrary to the trend in the art. Both muroctasin and MTP-PE have been specifically synthesised to incorporate a lipophilic group, and many non-lipophile-substituted muramyl dipeptides have been formulated in lipophilic preparations such as liposomes (as in U.S. Pat. No. 4,522,811 and U.S. Pat. No. 4,684,625), purportedly to enhance the activity of the muramyl dipeptide. In the present invention, water solubility is preferred.

[2] = test system: liver microsomal cytochrome P450; assay: Optical difference spectrum with liver microsomal cytochrome P450; assay type: binding; details: oxidised microsomes from phenobarbital-induced rat liver
Source text: The cytochrome P450 system is a system by means of which toxins are metabolised in the liver. A wide variety of substances combine with oxidised liver microsomal cytochrome P450 bringing about a change in absorbency. It has been shown that various drugs, substrates and inhibitors react with microsomal cytochrome P450 to give three characteristic types of spectral change.
The three types of spectral changes are as follows.
i) For substances such as ethylmorphine or hexobarbital, the minimum difference in the spectrum occurs at about 420 nm and the maximum at about 385-390 nm. These substances are designated type I compounds).
ii) For compounds such as aniline or nicotinamide, the minimum difference in the spectrum occurs at about 390-410 nm and the maximum at about 430 nm. These substances are designated type II compounds.
iii) Some compounds are apparently type II substrates but actually act by displacing endogenous type I substrates when added to microsomes. These compounds are designated reverse type I substrates.
It has been shown that, for a number of substrates, the apparent binding constants calculated from spectral changes are related to the actual binding of type I substrates at the active site.
Ks (spectral association constant) was 0.1 mM. This is Ks for the well known cytochrome P450 HEXENAL™.

outbred white mice = assay: Duration of ethanol narcosis in outbred white mice; assay type: in vivo; details: GMDP at least 0.01 mg/kg IP, three daily injections; ethanol 4.5 g/kg IP; vs control
Source text: as §1
In this example, the influence of GMDPA and various GMDP or GMDPA analogues on ethanol narcosis was studied. The procedure of Example 1 was followed, except that instead of the GMDP, one of the following compounds was administered IP at 1 mg/kg daily for three days: […]

outbred mice = assay: Duration of acetaldehyde narcosis in outbred mice; assay type: in vivo; details: GMDP IP, three daily injections; acetaldehyde 450 mg/kg IP
Procedure: as §1
The procedure of Example 1 was followed but modified to study the duration of acetaldehyde narcosis. Acetaldehyde, at 450 mg/kg was administered IP after the last GMDP dose, instead of the ethanol.

[3] = test system: cells of the reticulo-endothelial system; details: cited from earlier work
[4] = Placebo-controlled trial in colorectal surgery patients, blood bilirubin; assay type: in vivo, human; details: GMDP 1, 2 or 3 mg per day for 10 days
Source text: Over 200 patients were enrolled in a placebo-controlled trial to determine the effect of GMDP on the outcome of colorectal surgery. Many of these patients had undergone previous chemotherapy for the treatment of cancers, often over substantial periods of time, with the result that liver damage had occurred.
This was evidenced by such indicators as elevated bilirubin in their blood, resulting from the reduced ability of the liver to function as a detoxification organ. […] GMDP or placebo were administered for 10 days, and bilirubin levels in the blood were measured before and after the course of treatment. Bilirubin data were obtained from 182 of the subjects. It is clear that the average blood level of bilirubin decreased in the GMDP-treated group and the two asterisks indicate that this decrease was statistically highly significant (p=0.002). […] Blood levels of bilirubin before the trial were not different in the two groups.

C57BL/6 mice = assay: Duration of hexenal narcosis in C57BL/6 mice; assay type: in vivo
Source text: Cytochrome P450 -dependent monooxygenase activity induction in accordance with pharmacological testing of HEXENAL™ narcosis duration in mice.
In addition to the experiments, which have shown GMDP ability to interact directly with cytochrome P450 molecule as a substrate (in vitro) and to induce cytochrome P450 system in liver microsomes (GMDP effect in vivo), experiments for testing cytochrome P450 system according to the duration of HEXENAL™ narcosis in mice have been carried out. It is well known that HEXENAL™ is a substrate of cytochrome P450, and the duration of its narcotic effect clearly correlates with the rate of its oxidation in the liver cytochrome P450 system. The method of Example 6 was repeated, but instead of aniline and benzo(a)pyrene, the ability of the microsomes to metabolise HEXENAL™ was tested. The experiments performed have shown that GMDP in small doses is capable of inducing cytochrome P450 -dependent oxidation of HEXENAL™ (Tables 3 and 4).

mice [5] = assay: Duration of HEXENAL (hexobarbital) narcosis in mice, oral GMDP; assay type: in vivo; details: for Effect % (M ± m): vs control
Procedure: This example studies the effect of GMDP on the duration of narcosis induced by hexobarbital.
GMDP was administered orally to mice 15 minutes before the intraperitoneal injection of hexobarbital (HEXENAL™) at 50 mg/kg. The duration of narcosis (preservation of the lateral position) was recorded.

[6] = test system: mice liver cytochrome P-450 system; assay: Indices of activity of mice liver cytochrome P-450 system after GMDP injections; assay type: in vivo
Procedure: The experiments were performed on white male mice with a mass of […]. GMDP was dissolved in isotonic solution of sodium chloride and administered by means of intraperitoneal injection once a day for 3 days, with a dose of 20 mg/kg. A corresponding volume of the solvent was administered to control animals. Each group (test and control) consisted of 8 to 10 mice. Twenty-four hours after the last injection of the substances under test (test) and the solvent (control), the animals were killed, the liver was removed and its weight was determined. This was followed by the isolation of the microsomal fraction by means of differential centrifugation. The quality protein in it was determined according to the method of Lowry et al (Lowry et al, J. Biol. Chem., 193, 265-275 (1951)). Bovine serum albumin was used in the construction of calibrating plot. The content of cytochrome P450 and B5 in the liver microsomal fraction was determined by spectrophotometric method with the help of a `Hitachi-556` spectrophotometer. The rate of oxidation of aniline (p-hydroxylation) in microsomes in the presence of NADPH was determined spectrophotometrically on the basis of p-aminophenol which has formed already. The rate of oxidation of benzo(a)pyrene (BP) in liver microsomes was determined according to the intensity of fluorescence of the forming 3-oxibenzo (a) pyrene `Baird Nova` fluorimeter. The rate of hydroxylation of aniline and BP in microsomes was expressed in nmol of metabolites/nmol of cytochrome P450 per 1 minute, or in nmol of metabolites/mg of microsome protein per 1 minute. Statistical processing of the obtained data was performed with the use of Student's t-test.

[7] = GMDP 0.01 mg/kg × 3 days i.p, hexenal 50 mg/kg 24 hours after GMDP injections
[8] = GMDP i.p injection simultaneously with hexenal injection, 50 mg/kg
[9] = GMDP i.p. injection 10 min after hexenal injection, 50 mg/kg
[10] = GMDP i.p. injection 30 min before hexenal injection, 50 mg/kg
[11] = GMDP i.p. injection 60 min before hexenal injection, 50 mg/kg
[12] = GMDP per os 15 min before i.p injection of hexenal 50 mg/kg
[13] = GMDP 0.01 mg/kg orally 15 min before hexobarbital 50 mg/kg i.p.
[14] = GMDP 0.1 mg/kg orally 15 min before hexobarbital 50 mg/kg i.p.
[15] = GMDP 1.0 mg/kg orally 15 min before hexobarbital 50 mg/kg i.p.
[16] = 24 hours after GMDP 20 mg/kg × 3 days i.p.
[17] = GMDP relative to control, 20 mg/kg × 3 days
[18] = liver microsomes, 24 hours after GMDP 20 mg/kg × 3 days i.p.

- pyrogenicity (Pyrogenicity): substantially non-pyrogenic
Molecule: N-acetyl-glucosaminyl-N-acetyl-muramyl-L-alanyl-D-glutamic acid [GMDPA]
- inhibition of acetaldehyde narcosis (inbred C57 B1/6 mice; acetaldehyde given 1, 4 or 8 days later): inhibition of narcosis occurred
- inhibition of acetaldehyde narcosis (inbred C57 B1/6 mice; acetaldehyde given 12 days later): not 12

Molecule: CC(=O)N[C@H]1[C@H](O[C@H]2[C@H](O[C@H](C)C(=O)N[C@@H](C)C(=O)N[C@H](CCC(=O)O)C(N)=O)[C@@H](NC(C)=O)C(O)O[C@@H]2CO)O[C@H](CO)[C@@H](O)[C@@H]1O (stereo partly drawn) [GMDP, N-acetyl-glucosaminyl-N-acetyl-muramyl-L-alanyl-D-isoglutamine]
- acute toxicity in mice, LD50 (mice [1]): 7000 mg/kg
- water solubility (Water solubility): water soluble
- Ks (spectral association constant) [2]: 0.1 mM
- type of optical difference spectrum [2]: type I optical difference spectrum
- pyrogenicity (Pyrogenicity): sufficiently low not to have prevented its clinical evaluation
- duration of ethanol narcosis (outbred white mice): much shorter duration
- duration of acetaldehyde narcosis (outbred mice): markedly shortened the duration of narcosis
- synthesis of the superoxide anion (O2^-) [3]: stimulates the synthesis of the superoxide anion
- blood level of bilirubin after treatment vs placebo [4]: significantly different from bilirubin levels after placebo treatment
- average blood level of bilirubin, after vs before treatment ([4]; p=0.002): decreased
- Narcosis duration min. (M ± m) (C57BL/6 mice; [7]): 21.7 ± 5.2 min
- Narcotic effect in % from control (C57BL/6 mice; [7]): 45%
- Narcosis duration min. (M ± m) (C57BL/6 mice; [8]): 25.7 ± 4.9 min
- Narcotic effect in % from control (C57BL/6 mice; [8]): 85%
- Narcosis duration min. (M ± m) (C57BL/6 mice; [9]): 41.2 ± 3.3 min
- Narcotic effect in % from control (C57BL/6 mice; [9]): 95%
- Narcosis duration min. (M ± m) (C57BL/6 mice; [10]): 18.4 ± 1.5 min
- Narcotic effect in % from control (C57BL/6 mice; [10]): 61%
- Narcosis duration min. (M ± m) (C57BL/6 mice; [11]): 30.9 ± 5.7 min
- Narcotic effect in % from control (C57BL/6 mice; [11]): 100%
- Narcosis duration min. (M ± m) (C57BL/6 mice; [12]): 31.3 ± 4.9 min
- Narcotic effect in % from control (C57BL/6 mice; [12]): 57%
- Narcosis duration Min (M ± m) (mice [5]; [13]): 15.48 ± 4.93 min
- Effect % (M ± m) (mice [5]; [13]): -74.01 ± 8.15%
- Narcosis duration Min (M ± m) (mice [5]; [14]): 8.72 ± 2.98 min
- Effect % (M ± m) (mice [5]; [14]): -85.59 ± 4.92%
- Narcosis duration Min (M ± m) (mice [5]; [15]): 18.47 ± 4.82 min
- Effect % (M ± m) (mice [5]; [15]): -69.47 ± 7.96%
- shortening of the duration of hexobarbital-induced narcosis (mice [5]; average over all the doses investigated): ~4 fold
- Liver weight mg/g of the animal weight [6, 16]: 80.0 mg/g of the animal weight
- Microsomal protein mg/g of liver weight [6, 16]: 5.8 ± 0.31 mg/g of liver weight
- Aniline-hydroxylase (per mg of protein), % [6, 17]: 194%
- Aniline-hydroxylase (per nmol of cyt. P-450), % [6, 17]: 178%
- BP-hydroxylase (per mg of protein), % [6, 17]: 171%
- BP-hydroxylase (per nmol of cyt P-450), % [6, 17]: 218%
- Cytochrome P-450, % [6, 17]: 134%
- Microsomal protein, % [6, 17]: 129%
- Cytochrome P-450 nmol/mg of protein ([6]; liver microsomal fraction, 24 hours after GMDP 20 mg/kg × 3 days i.p.): 0.87 ± 0.06 nmol/mg of protein
- Aniline-hydroxylase nmol/mg of protein per 1 minute [6, 18]: 1.20 ± 0.1 nmol/mg of protein per 1 minut
- Aniline-hydroxylase nmol/nmol of cyt. P-450 per 1 minute [6, 18]: 1.05 ± 0.01 nmol/nmol of cyt. P-450 per 1
- BP-hydroxylase nmol/mg of protein per 1 minute [6, 18]: 0.6 ± 0.04 nmol/mg of protein per 1 minut
- BP-hydroxylase nmol/nmol of cyt P-450 per 1 minute [6, 18]: 0.87 ± 0.09 nmol/nmol of cyt P-450 per 1 m
